Assay results reported in ChEMBL document CHEMBL1153227, “2,3,5-Trisubstituted pyridines as selective AKT inhibitors. Part II: Improved drug-like properties and kinase selectivity from azaindazoles” (Bioorg Med Chem Lett, 2010).
In brackets after ≈: the same amount, converted by molar mass. Activity calls are given as the source filed them. The rule behind the calls is not given here.

Assays:
BT-474 = assay: Cytotoxicity against human BT474 cells; assay type: functional, cell-based
[1] = Solubility of the compound; assay type: physicochemical
[2] = molecular target: RAC-alpha serine/threonine-protein kinase (Homo sapiens, UniProt P31749); assay: Inhibition of AKT1
RAC-alpha serine/threonine-protein kinase, sequence (P31749 whole entry): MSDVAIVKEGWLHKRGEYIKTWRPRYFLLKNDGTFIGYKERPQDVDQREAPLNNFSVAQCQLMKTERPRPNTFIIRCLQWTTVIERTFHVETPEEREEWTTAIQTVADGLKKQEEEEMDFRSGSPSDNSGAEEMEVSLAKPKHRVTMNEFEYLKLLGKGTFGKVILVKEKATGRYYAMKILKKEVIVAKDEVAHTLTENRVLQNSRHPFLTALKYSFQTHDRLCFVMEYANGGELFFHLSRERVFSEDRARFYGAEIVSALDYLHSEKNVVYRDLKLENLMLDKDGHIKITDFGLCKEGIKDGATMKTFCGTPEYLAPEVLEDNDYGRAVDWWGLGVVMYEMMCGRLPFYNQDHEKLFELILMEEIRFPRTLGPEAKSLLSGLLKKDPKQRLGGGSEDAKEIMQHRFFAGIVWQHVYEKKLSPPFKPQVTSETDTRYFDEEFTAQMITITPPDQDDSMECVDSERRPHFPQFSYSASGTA

[3] = Protein binding in SCID mouse plasma; assay type: ADME, cell-free; conditions: read-out: PPB (converted)
Cytochrome P450 3A4 = Cytochrome P450 3A4 (Homo sapiens, UniProt P08684); assay: Inhibition of CYP3A4; assay type: ADME
Cytochrome P450 3A4, sequence (P08684 whole entry): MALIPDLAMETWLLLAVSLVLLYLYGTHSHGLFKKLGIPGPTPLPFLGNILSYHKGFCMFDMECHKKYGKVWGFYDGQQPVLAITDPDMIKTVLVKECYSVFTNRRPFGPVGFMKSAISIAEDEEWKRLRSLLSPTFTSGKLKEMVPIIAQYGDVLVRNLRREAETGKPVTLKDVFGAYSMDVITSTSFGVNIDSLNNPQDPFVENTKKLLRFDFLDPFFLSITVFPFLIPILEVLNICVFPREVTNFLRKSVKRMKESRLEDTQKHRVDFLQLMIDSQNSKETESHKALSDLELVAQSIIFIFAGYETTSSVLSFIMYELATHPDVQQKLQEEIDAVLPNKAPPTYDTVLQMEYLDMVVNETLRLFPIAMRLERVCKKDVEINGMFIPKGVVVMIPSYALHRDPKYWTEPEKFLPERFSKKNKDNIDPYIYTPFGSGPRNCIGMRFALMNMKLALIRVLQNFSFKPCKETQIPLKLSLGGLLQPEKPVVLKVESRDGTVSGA

HFF = assay: Cytotoxicity against HFF cells; assay type: cell-based; conditions: Homo sapiens
LNCaP = assay: Cytotoxicity against human LNCAP cells; assay type: functional, cell-based
[4] = molecular target: RAC-gamma serine/threonine-protein kinase (Homo sapiens, UniProt Q9Y243); assay: Inhibition of AKT3
RAC-gamma serine/threonine-protein kinase, sequence (Q9Y243 whole entry): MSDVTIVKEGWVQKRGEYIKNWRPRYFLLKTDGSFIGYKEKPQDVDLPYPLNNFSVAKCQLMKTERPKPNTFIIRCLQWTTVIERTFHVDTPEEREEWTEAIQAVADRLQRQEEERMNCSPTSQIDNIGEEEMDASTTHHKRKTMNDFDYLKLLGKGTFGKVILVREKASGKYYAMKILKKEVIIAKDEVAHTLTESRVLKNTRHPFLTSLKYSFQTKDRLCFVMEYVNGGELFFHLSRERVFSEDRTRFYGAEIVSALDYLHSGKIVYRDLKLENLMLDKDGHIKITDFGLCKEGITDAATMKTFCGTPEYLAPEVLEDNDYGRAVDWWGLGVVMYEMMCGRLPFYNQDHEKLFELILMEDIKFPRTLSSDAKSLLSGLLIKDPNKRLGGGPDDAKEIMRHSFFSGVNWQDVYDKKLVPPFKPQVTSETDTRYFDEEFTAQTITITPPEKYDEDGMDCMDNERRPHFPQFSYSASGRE

[5] = molecular target: RAC-beta serine/threonine-protein kinase (Homo sapiens, UniProt P31751); assay: Inhibition of AKT2
RAC-beta serine/threonine-protein kinase, sequence (P31751 whole entry): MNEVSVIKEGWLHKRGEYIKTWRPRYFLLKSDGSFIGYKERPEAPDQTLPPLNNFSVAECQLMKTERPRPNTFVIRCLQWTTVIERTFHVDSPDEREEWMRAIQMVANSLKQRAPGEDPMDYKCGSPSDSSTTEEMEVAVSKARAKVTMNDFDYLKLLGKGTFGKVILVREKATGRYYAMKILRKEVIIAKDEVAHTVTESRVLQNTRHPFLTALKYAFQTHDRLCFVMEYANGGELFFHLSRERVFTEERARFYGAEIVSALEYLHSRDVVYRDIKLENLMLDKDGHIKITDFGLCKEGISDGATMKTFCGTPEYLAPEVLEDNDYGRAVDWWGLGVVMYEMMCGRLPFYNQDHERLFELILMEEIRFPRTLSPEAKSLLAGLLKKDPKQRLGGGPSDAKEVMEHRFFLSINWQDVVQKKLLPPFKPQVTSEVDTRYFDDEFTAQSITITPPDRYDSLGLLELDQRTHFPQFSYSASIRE

Mus musculus [6] = assay: Inhibition of GSK3-beta phosphorylation in human BT474 cell xenografted SCID mouse at 25 mg/kg, ip; assay type: functional, organism-based; design: dose 25 mg/kg; conditions: BT-474
Mus musculus [7] = assay: Inhibition of GSK3-beta phosphorylation in human BT474 cell xenografted SCID mouse at 12.5 mg/kg, ip; assay type: functional, organism-based; design: dose 12.5 mg/kg; conditions: BT-474
Mus musculus [8] = assay: Inhibition of GSK3-beta phosphorylation in human BT474 cell xenografted SCID mouse at 50 mg/kg, ip; assay type: functional; conditions: BT-474, ip, route intraperitoneal
[9] = Drug level in tumor of human BT474 cells xenografted in SCID mouse at 50 mg/kg, ip; assay type: ADME, organism-based, Neoplasm, BT-474; design: dose 50 mg/kg, route intraperitoneal; conditions: in vivo
Cytochrome P450 1A2 = molecular target: T1, Cytochrome P450 1A2 (Homo sapiens, UniProt P05177); assay: Inhibition of CYP1A2; assay type: ADME
T1 sequence (P05177 whole entry): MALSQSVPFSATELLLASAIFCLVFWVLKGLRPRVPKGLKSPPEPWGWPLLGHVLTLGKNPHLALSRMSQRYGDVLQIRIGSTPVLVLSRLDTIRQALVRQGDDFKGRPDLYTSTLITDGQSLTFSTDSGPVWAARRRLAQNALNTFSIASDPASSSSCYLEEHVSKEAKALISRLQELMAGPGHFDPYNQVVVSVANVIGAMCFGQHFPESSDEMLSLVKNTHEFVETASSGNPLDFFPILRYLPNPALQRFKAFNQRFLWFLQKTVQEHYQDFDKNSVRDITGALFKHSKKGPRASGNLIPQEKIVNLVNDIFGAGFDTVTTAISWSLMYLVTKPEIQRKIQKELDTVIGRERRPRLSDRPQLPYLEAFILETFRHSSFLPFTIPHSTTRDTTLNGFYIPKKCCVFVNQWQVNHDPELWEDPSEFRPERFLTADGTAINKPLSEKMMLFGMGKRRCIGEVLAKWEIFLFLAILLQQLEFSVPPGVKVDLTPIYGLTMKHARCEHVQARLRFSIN

[10] = Inhibition of RSK
[11] = Inhibition of PKA
Cytochrome P450 2C19 = Cytochrome P450 2C19 (Homo sapiens, UniProt P33261); assay: Inhibition of CYP2C19; assay type: ADME
[12] = molecular target: Ribosomal protein S6 kinase beta-1 (Homo sapiens, UniProt P23443); assay: Inhibition of P70S6K
Ribosomal protein S6 kinase beta-1, sequence (P23443 whole entry): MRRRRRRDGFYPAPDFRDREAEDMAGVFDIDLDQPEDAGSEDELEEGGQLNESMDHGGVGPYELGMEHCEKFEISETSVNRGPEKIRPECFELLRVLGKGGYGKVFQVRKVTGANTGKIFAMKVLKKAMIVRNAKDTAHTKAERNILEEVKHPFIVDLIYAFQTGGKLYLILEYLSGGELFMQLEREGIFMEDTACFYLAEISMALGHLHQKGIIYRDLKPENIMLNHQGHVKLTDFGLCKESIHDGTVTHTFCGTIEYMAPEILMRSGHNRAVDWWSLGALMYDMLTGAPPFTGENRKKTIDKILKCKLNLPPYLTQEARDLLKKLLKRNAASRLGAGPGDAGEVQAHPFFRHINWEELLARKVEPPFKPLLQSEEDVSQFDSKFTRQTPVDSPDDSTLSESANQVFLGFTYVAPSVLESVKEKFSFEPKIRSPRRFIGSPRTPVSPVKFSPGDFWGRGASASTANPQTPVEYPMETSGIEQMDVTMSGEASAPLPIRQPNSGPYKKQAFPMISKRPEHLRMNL

[13] = molecular target: Serine/threonine-protein kinase PAK 1 (Homo sapiens, UniProt Q13153); assay: Inhibition of PAK1
Serine/threonine-protein kinase PAK 1, sequence (Q13153 whole entry): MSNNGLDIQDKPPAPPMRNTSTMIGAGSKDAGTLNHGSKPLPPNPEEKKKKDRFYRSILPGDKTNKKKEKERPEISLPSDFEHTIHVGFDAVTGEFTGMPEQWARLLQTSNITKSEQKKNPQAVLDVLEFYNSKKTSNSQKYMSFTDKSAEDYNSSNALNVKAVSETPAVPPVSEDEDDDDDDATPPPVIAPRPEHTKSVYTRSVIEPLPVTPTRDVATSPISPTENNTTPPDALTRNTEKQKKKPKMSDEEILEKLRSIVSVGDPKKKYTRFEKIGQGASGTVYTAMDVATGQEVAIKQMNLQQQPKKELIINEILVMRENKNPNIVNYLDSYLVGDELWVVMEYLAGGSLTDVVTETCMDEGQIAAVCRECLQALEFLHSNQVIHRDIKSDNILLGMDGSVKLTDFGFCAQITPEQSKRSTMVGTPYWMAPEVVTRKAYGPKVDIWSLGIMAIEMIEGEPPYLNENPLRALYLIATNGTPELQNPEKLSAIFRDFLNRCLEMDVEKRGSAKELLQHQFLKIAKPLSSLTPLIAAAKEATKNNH

Cytochrome P450 2D6 = Cytochrome P450 2D6 (Homo sapiens, UniProt P10635); assay: Inhibition of CYP2D6; assay type: ADME
Cytochrome P450 2D6, sequence (P10635 whole entry): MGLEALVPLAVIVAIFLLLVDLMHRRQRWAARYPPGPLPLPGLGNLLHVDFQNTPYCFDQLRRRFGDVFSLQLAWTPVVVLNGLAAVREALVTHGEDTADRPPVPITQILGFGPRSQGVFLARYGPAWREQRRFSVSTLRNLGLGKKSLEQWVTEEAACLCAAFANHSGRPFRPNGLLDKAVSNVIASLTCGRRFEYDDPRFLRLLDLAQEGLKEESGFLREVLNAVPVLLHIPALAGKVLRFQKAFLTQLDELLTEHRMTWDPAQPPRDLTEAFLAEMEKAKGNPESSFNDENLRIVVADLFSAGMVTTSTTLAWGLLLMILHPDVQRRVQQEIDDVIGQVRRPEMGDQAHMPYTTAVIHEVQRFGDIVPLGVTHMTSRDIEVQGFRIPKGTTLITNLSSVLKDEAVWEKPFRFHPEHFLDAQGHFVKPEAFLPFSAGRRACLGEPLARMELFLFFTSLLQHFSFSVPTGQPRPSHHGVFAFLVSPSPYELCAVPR

[14] = molecular target: Rho-associated protein kinase 1 (Homo sapiens, UniProt Q13464); assay: Inhibition of ROCK1
Rho-associated protein kinase 1, sequence (Q13464 whole entry): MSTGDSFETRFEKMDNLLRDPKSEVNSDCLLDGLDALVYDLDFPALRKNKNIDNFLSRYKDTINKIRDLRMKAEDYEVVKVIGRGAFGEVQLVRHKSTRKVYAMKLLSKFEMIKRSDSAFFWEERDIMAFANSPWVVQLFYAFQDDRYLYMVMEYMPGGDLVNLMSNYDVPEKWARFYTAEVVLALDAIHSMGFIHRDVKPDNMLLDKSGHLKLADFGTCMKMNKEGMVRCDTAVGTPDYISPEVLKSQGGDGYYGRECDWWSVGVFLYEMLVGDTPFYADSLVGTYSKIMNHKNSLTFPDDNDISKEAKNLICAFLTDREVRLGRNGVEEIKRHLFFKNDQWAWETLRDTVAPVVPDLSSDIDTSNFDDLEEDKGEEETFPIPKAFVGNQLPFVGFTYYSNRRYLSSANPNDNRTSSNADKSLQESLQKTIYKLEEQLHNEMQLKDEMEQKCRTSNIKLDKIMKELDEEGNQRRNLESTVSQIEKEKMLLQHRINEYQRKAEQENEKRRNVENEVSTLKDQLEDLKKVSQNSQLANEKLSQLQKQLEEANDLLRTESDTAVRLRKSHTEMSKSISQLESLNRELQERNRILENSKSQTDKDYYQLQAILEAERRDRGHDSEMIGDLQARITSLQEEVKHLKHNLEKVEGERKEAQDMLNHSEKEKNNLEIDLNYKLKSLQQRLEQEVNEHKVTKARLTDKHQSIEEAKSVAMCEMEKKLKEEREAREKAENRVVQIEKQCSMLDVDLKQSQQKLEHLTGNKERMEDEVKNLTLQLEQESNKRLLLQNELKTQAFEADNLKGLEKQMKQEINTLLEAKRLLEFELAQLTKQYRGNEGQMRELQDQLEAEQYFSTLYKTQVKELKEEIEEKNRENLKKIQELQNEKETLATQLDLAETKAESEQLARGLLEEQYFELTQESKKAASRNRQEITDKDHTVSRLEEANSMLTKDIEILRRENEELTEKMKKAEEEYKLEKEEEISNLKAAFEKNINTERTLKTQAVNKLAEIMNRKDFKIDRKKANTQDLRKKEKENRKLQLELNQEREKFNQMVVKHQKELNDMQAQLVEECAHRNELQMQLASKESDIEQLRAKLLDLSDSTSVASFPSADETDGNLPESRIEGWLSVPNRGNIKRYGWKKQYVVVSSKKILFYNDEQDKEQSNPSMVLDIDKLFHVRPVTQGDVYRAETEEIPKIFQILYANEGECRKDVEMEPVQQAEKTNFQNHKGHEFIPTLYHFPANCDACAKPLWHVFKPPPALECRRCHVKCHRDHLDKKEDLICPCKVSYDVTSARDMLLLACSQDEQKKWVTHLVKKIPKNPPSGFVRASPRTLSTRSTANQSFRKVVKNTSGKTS

Compound | solubility [1] | IC50 [2] | fraction unbound [3] | IC50 (Cytochrome P450 3A4) | IC50 [4] | IC50 [5] | IC50 (BT-474) | IC50 (HFF) | IC50 (LNCaP) | further results
Cc1n[nH]c2ncc(-c3cc(OC[C@@H](N)Cc4c[nH]c5ccccc45)cnc3-c3ccoc3)cc12 | 108 µM (≈ 50.2 µg/mL) | 1 nM | 0.047 | 200 nM | – | – | 300 nM | 6600 nM | 85 nM | –
Cc1n[nH]c2cnc(-c3cc(OC[C@@H](N)Cc4c[nH]c5ccccc45)cnc3-c3ccoc3)nc12 | 205 µM (≈ 95.4 µg/mL) | 1 nM | 0.155 | 1300 nM | 15 nM | 31 nM | 640 nM | 30000 nM | 540 nM | –
Cc1[nH]nc2ccc(-c3cc(OC[C@@H](N)Cc4c[nH]c5ccccc45)cnc3-c3ccoc3)cc12 | 52 µM (≈ 24.1 µg/mL) | 1 nM | 0.041 | 50 nM | 1 nM | 12 nM | 340 nM | 5500 nM | 190 nM | IC50 (Cytochrome P450 1A2): 50000 nM; IC50 [10]: 25 nM; IC50 [11]: 1 nM; IC50 (Cytochrome P450 2C19): 2000 nM; IC50 [12]: 7 nM; IC50 [13]: 31 nM; IC50 (Cytochrome P450 2D6): 5000 nM; IC50 [14]: 1580 nM

The remaining molecules from weak to strong by IC50 [2], led by results:

solubility [1] | IC50 [2] | fraction unbound [3] | IC50 (Cytochrome P450 3A4) | IC50 [4] | IC50 [5] | Compound | IC50 (BT-474) | IC50 (HFF) | IC50 (LNCaP) | further results
225 µM (≈ 105 µg/mL) | 12 nM | 0.069 | 100 nM | – | – | Cc1n[nH]c2ccc(-c3cc(OC[C@@H](N)Cc4c[nH]c5ccccc45)cnc3-c3ccoc3)nc12 | 2100 nM | 30000 nM | 830 nM | –
200 µM (≈ 93.1 µg/mL) | 2 nM | 0.091 | 400 nM | 10 nM | 39 nM | Cc1n[nH]c2ncc(-c3cc(OC[C@@H](N)Cc4c[nH]c5ccccc45)cnc3-c3ccoc3)nc12 | 370 nM | 14300 nM | 96 nM | Activity (Mus musculus [6]): inactive; Activity (Mus musculus [7]): inactive; inhibition in vivo at 50 mg/kg (Mus musculus [8]): 80%; Drug uptake [9]: 3798 ng/mL
– | 1 nM | 0.057 | 16 nM | 1 nM | 6 nM | Cc1n[nH]c2cnc(-c3cc(OC[C@@H](N)Cc4c[nH]c5ccccc45)cnc3-c3ccoc3)cc12 | 750 nM | 6500 nM | 230 nM | –
